Assays:
Type in all cases: binding
DpPorA = assay: Single-molecule sensing: analyte blocking of single DpPorA pore; details: 1 M KCl; for ion current blockage of single DpPorA (in words): 10 mM HEPES pH 7.4, am8γCD 10 μM trans at positive voltages, γCD, s8γCD 100 μM cis, D9, R4 10 μM cis
Description: (§1) Electrical recordings were carried out by using bilayers of 1,2-diphytanoyl-sn-glycero-3-phosphocholine (DPhPC, Avanti Polar Lipids) formed across ~100 µm in diameter polytetrafluoroethylene (Teflon) film of 25 µm thick (Goodfellow, Cambridge)[59]. The Teflon film is sandwiched between two sides of the Delrin bilayer chamber, called cis and trans compartments (500 µL each). Solvent-free bilayers were formed by pre-treating the aperture with hexadecane in n-pentane (1 μL, 5 mg mL^−1) on each side of the bilayer chamber. Then the bilayer chamber was filled with the electrolyte solution (1 M KCl, 10 mM HEPES, pH 7.4) and DPhPC in n-pentane (2 μL, 5 mg mL^−1) was added to both sides of the chamber. After 5 min, a bilayer was formed when the electrolyte was raised, bringing the two lipid surface monolayers together at the aperture. pPorA pores were formed by adding self-assembled preoligomers extracted from the SDS PAGE gel to the cis side of the chamber. The cWza pores were formed by adding peptide solution in 0.1% DDM (1 µL, 100 µg mL^−1) to the cis side. The cis chamber was connected to the grounded electrode and the trans chamber was attached to the working electrode. A potential difference was applied through a pair of Ag/AgCl electrodes, set in 3% agarose containing 3.0 M KCl. We investigated the ion selectivity of pores using the KCl salt gradient applied across the bilayer chambers (1 M cis /0.15 M trans). The reverse potential was determined to calculate the permeability ratio of K^+ and Cl^- ions across the pore (Supplementary text). The current was amplified using an Axopatch 200B amplifier, digitized with a Digidata 1550B digitizer (pCLAMP 11.0, Molecular Devices, CA) with a low-pass filter frequency of 10 kHz and a sampling frequency of 50 kHz or a low-pass filter frequency of 2 kHz and a sampling frequency of 10 kHz. Single-channel data analysis was conducted using Clampfit 11.0 (Molecular devices, CA). Histogram plotting were performed in OriginPro 2022 (OriginLab).

LpPorA = assay: Single-channel analyte blocking of LpPorA pore; details: +50 mV; am8γCD 1 µM trans; 1 M KCl; n = 3
Description: as §1, with “A potential difference was applied through a pair of Ag/AgCl electrodes, set in 3% agarose containing 3.0 M KCl. We investigated the ion selectivity of pores using the KCl salt gradient applied across the bilayer chambers (1 M cis /0.15 M trans).” left out, “The current was amplified using an Axopatch 200B amplifier, digitized with a Digidata 1550B digitizer (pCLAMP 11.0, Molecular Devices, CA) with a low-pass filter frequency of 10 kHz and a sampling frequency of 50 kHz or a low-pass filter frequency of 2 kHz and a sampling frequency of 10 kHz. Single-channel data analysis was conducted using Clampfit 11.0 (Molecular devices, CA). Histogram plotting were performed in OriginPro 2022 (OriginLab).” left out

DcWza = assay: Single-channel analyte blocking of DcWza pore; details: 100 μM, trans; +100 mV; 1 M KCl, 10 mM HEPES, pH 7.4
Description: as §1, with “A potential difference was applied through a pair of Ag/AgCl electrodes, set in 3% agarose containing 3.0 M KCl. We investigated the ion selectivity of pores using the KCl salt gradient applied across the bilayer chambers (1 M cis /0.15 M trans).” left out, “The current was amplified using an Axopatch 200B amplifier, digitized with a Digidata 1550B digitizer (pCLAMP 11.0, Molecular Devices, CA) with a low-pass filter frequency of 10 kHz and a sampling frequency of 50 kHz or a low-pass filter frequency of 2 kHz and a sampling frequency of 10 kHz. Single-channel data analysis was conducted using Clampfit 11.0 (Molecular devices, CA). Histogram plotting were performed in OriginPro 2022 (OriginLab).” left out

Structure (SMILES) | pore block (closure) of DpPorA (S) (DpPorA; 10 μM analyte, cis, negative voltages) [%] | ion current blockage of single DpPorA (in words) (DpPorA) | mean blockage time (τoff) (LpPorA) [ms] | ion current blockage of DcWza in the open state (in words) (DcWza)
NCC1OC2OC3C(CN)OC(OC4C(CN)OC(OC5C(CN)OC(OC6C(CN)OC(OC7C(CN)OC(OC8C(CN)OC(OC9C(CN)OC(OC1C(O)C2O)C(O)C9O)C(O)C8O)C(O)C7O)C(O)C6O)C(O)C5O)C(O)C4O)C(O)C3O (centres unmarked) [am8γCD] | 100 | complete pore closure | 0.22 ± 0.03 | no blockages were observed
OC[C@H]1O[C@@H]2O[C@H]3[C@H](O)[C@@H](O)[C@@H](O[C@H]4[C@H](O)[C@@H](O)[C@@H](O[C@H]5[C@H](O)[C@@H](O)[C@@H](O[C@H]6[C@H](O)[C@@H](O)[C@@H](O[C@H]7[C@H](O)[C@@H](O)[C@@H](O[C@H]8[C@H](O)[C@@H](O)[C@@H](O[C@H]9[C@H](O)[C@@H](O)[C@@H](O[C@H]1[C@H](O)[C@H]2O)O[C@@H]9CO)O[C@@H]8CO)O[C@@H]7CO)O[C@@H]6CO)O[C@@H]5CO)O[C@@H]4CO)O[C@@H]3CO [γCD] |  | did not produce any current blockages |  | 

Reference: publication PMC9474448, “Assembly of transmembrane pores from mirror-image peptides” (Nature Communications, 2022)
